Assay results from patent US7927829B2, “Method for in vitro phosphorylation of trap of Staphylococcus aureus and a method for screening the inhibitor of the trap phosphorylation” (priority 2007, dated 2011).

Biological target: TRAP protein (Staphylococcus aureus, UniProt Q6GFM2)
Assay type: biochemical
Parameters: 6xHis (C); made in house; host or cells: Escherichia coli
Details: for in vitro phosphorylation of TRAP protein by using metal ions: 20 μM or 200 μM metal ions, 37° C. 30 minutes, FIG. 2; for metal ion concentration above which TRAP protein is maximally phosphorylated: various ion concentrations, other conditions as Example 3, FIG. 3; for TRAP phosphorylation induced by oxidative and reductive agents: same procedure as Example 3, FIG. 5
Protocol: The TRAP protein obtained in Example 2 was prepared with each tube according to following compositions of Table 2.
The protein sample prepared above was reacted at 37° C. for 30 minutes, then mixed with 2× loading dye 10 l (BioRad), and analyzed by performing SDS-PAGE at 150 V for an hour. Afterward, the resulting gel was dried and exposed onto an X-ray film to measure a degree of phosphorylation. The result is illustrated in FIG. 2. In the upper part of FIG. 2, 20 μM metal ions, Mg, Zn, Cu, Fe, Mn, Ni, Co are used in Lane 1 through Lane 7, respectively. In the lower part of FIG. 2, 200 μM metal ions, Mg, Cu, Zn, Ni, Co, Ca are used in Lane 1 through Lane 7, respectively.
Generally, a protein kinase binds with ATP, hydrolyzes ATP into ADP and attaches a resulting phosphate onto a specific amino acid of the protein to phosphorylate. In this process, Mg^2+ ions play a role of a subsidiary enzyme to stabilize the kinase binding with phosphates of ATP. […] The present inventors have attempted to elucidate why the TRAP protein utilizes the transition metal ions. […] Various oxidative and reductive agents were used to induce a phosphorylation in this Example.
In order to measure the TRAP phosphorylation, a quantitative analysis was performed by using FeSO4, ZnCl2 and CuCl2, in this Example. FeSO4, ZnCl2 and CuCl2, were added to each reaction at various ion concentrations and other conditions of the phosphorylation are the same as that of Example 3. The result is illustrated in FIG. 3.

Chain of TRAP protein (Q6GFM2 whole entry): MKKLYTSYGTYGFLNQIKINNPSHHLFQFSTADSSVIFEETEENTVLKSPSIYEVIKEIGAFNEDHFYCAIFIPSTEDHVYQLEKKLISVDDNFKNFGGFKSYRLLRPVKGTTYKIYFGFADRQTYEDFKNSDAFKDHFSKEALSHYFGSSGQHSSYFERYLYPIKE

| SMILES | in vitro phosphorylation of TRAP protein by using metal ions | metal ion concentration above which TRAP protein is maximally phosphorylated | TRAP phosphorylation induced by oxidative and reductive agents | TRAP phosphorylation inhibited by a reducing agent (summary statement) |
| --- | --- | --- | --- | --- |
| [Cl-].[Cl-].[Mg+2] [Mg^2+, MgCl2] | not phosphorylated | – | – | – |
| [Cl][Cu][Cl] [CuCl2] | in vitro phosphorylated | > 20 µM | – | – |
| O=C1O[C@H]([C@@H](O)CO)C(O)=C1O [ascorbic acid, reference compound] | – | – | not | inhibited |
| OO [H2O2, reference compound] | – | – | induced | – |
| [Cl-].[Cl-].[Zn+2] [ZnCl2] | in vitro phosphorylated | > 100 µM | – | – |
| O=S(=O)([O-])[O-].[Fe+2] [FeSO4] | in vitro phosphorylated | > 2 µM | – | – |
